Results from ChEMBL document CHEMBL5137054, “Xyloketal B Reverses Nutritional Hepatic Steatosis, Steatohepatitis, and Liver Fibrosis through Activation of the PPARα/PGC1α Signaling Pathway” (J Nat Prod, 2022).
Calls of active or inactive are those of the source.

Tests used:
Mus musculus [1] = test: Reduction in hepatic steatosis in HFD-induced C57BL/6J mouse model of NAFL assessed as reduction in serum AST level at 20 to 40 mg/kg/day, ip administered from week 7 to week 12; assay type: functional, organism-based; conditions: dose 20-40 mg/kg/day, time 6.0 weeks
Mus musculus [2] = test: Upregulation of Cpt1a gene transcriptional level in HFD-induced C57BL/6J mouse model of NAFL at 20 to 40 mg/kg/day, ip administered from week 7 to week 12 by qRT-PCR analysis; assay type: functional, organism-based; conditions: dose 20-40 mg/kg/day, time 6.0 weeks
Mus musculus [3] = test: Upregulation of peroxisomal acyl-coenzyme A oxidase-1 enzyme expression in liver of HFD-induced C57BL/6J mouse model of NAFL administered intraperitoneally from week 7 to week 12 by immunoblotting analysis; assay type: functional; conditions: dose 20-40 mg/kg/day, route ip, time 6.0 weeks, DDE = dose-dependent effect
Mus musculus [4] = test: Antifibrotic activity against MCD-induced C57BL/6J mouse model of liver fibrosis assessed as reduction in MMP3 level in liver administered intraperitoneally from week 3 to week 6 by immunoblotting analysis; assay type: functional, organism-based; conditions: dose 20-40 mg/kg, route ip, time 4.0 weeks, DDE = dose-dependent effect
Mus musculus [5] = test: Antifibrotic activity against MCD-induced C57BL/6J mouse model of liver fibrosis assessed as reduction in TIMP1 level in liver administered intraperitoneally from week 3 to week 6 by immunoblotting analysis; assay type: functional, organism-based; conditions: dose 20-40 mg/kg, route ip, time 4.0 weeks, DDE = dose-dependent effect

Measured: Activity

C[C@H]1CO[C@]2(C)Oc3cc(O)c4c(c3C[C@H]12)O[C@@]1(C)OC[C@H](C)[C@H]1C4
active: Mus musculus [1] | Mus musculus [2] | Mus musculus [3] Dde | Mus musculus [4] Dde | Mus musculus [5] Dde
